Key:
TYK2-JH2 = target: T1, TYK2-JH2 (Homo sapiens, UniProt P29597); assay: TYK2-JH2 HTRF binding assay (ligand efficiency); settings: calculated from IC50 of the TYK-JH2 binding assay (Equation 1)
T1 construct: TYK JH2 enzyme mix (ChemPartnec CP20210818A-BV); purchased ChemPartner CP20210818A-BV
Description: The following example describes the TYK2-JH2 HTRF binding assay used to determine the ligand efficiency of the TYK2 inhibitors.
To calculate ligand efficiency, Equation 1 is applied:
[formula] in which IC50 comes from the binding assay used to determine compound potency.
TYK JH2 enzyme mix (ChemPartnec CP20210818A-BV), tracer (ChemPartnec CP-0029472-051) and mAb Anti-6HIS Tb cryptate Gold (Cisbio: Cat No. 61H12TLA) mix were prepared in assay buffer (10 mM MgCl2, 20 mM HEPES pH 7.5, 0.01% Triton X-100, 1 mM DTT). Compounds diluted in DMSO (Final Concentrations 0.1 to 0.000005 [μM]) and enzyme mix (0.5 nM Final Concentration) were added to 384 well plates, briefly centrifuged and incubated at room temperature for 10 minutes. After incubation, tracer mix (Tracer-35 nM final concentration); (Mab Anti-6HIS Tb cryptate Gold-0.5× final)) was added, briefly centrifuged then incubate at room temperature 60 minutes. After incubation, plates were read by Envision TR-FRET (Ex340/Em495/520) protocol (PerkinElmer-Envision 2104 multilabel plate reader).

IL-12/pSTAT4 = assay: IL-12 induced pSTAT4 assay in NK-92 cells; assay type: cell-based; settings: Homo sapiens, NK92, IL-12 stimulation, read-out: Cellular potency (IL-12/pSTAT4)
Description: The following example describes the IL-12 induced pSTAT4 assay used to determine the cellular potency (IL-12/pSTAT4) of the TYK2 inhibitors.
NK-92 cells (human natural killer lymphoma cell line) were cultured in MEM α, nucleosides (Life Technologies, 22571020) 12.5% heat inactivated FBS (Dominique Dutscher, S1810), 12.5% heat inactivated Horse serum (Life Technologies, 26050088) and 1% Penicillin-Streptomycin (Life Technologies, 15140122), 5 ng/mL human IL-2 (R&D systems, 202-II/CF), 0.2 mM inositol (Sigma, PHR1351 lot LRAC4118), 0.1 mM β-mercaptoethanol (Life Technologies, 31350010), and 0.02 mM folic acid (Sigma, F8758).
NK-92 cells were starved overnight in starvation medium (Opti-MEM (ThermoFisher, 11058-021), 10% charcoal stripped FBS (ThermoFisher 12676-029), and 1% Penicillin (100U/ml)-Streptomycin (100 μg/ml) (ThermoFisher, ref 15140122)), then plated in a 96-well tissue culture plate (20K cells/well) prior to pre-incubation with test compounds (Final Concentration [nM] 1000 to 0.05) for 30 minutes at 37° C. Cells were stimulated with IL-12 (Final Concentration l0 ng/ml) for 30 minutes at 37° C., and terminated by addition of lysis buffer (MSD K150PAD-2). pSTAT4 (Tyr693) was detected using the Mesa Scale Discovery platform (MSD K150PAD-2), according to manufacturer's instruction. Briefly, cell lysates were added to pre-blocked plates and incubated for 1 hour at room temperature. Plates were washed and incubated with detection antibody for 1 hour at room temperature. Plates were washed and Read Buffer was added prior to measurement on the MSD (1300 MSD Quickplex SQ 120).

T1 sequence (P29597 589-875 limits assumed): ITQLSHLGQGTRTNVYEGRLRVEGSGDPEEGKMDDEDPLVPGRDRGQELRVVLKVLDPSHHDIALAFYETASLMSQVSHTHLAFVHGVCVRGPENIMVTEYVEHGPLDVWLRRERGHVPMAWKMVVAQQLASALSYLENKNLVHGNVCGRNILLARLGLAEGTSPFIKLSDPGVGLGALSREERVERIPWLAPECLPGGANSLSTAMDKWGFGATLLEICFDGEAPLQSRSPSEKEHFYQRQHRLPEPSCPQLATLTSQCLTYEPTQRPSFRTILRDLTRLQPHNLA

## CS(=O)(=O)c1cccnc1Nc1cc(Nc2ccc(N3CCN(C4CC4)CC3)cn2)ncn1 [Compound 7, N^4-(5-(4-cyclopropylpipeiazin-1-yl) 83yridine-2-yl)-N^6-(3-(methylsulfonyl)83yridine-2-yl)pyrimidine-4,6-diamine]
TYK2-JH2
  Ligand Efficiency: ††† (†††: >0.39)
IL-12/pSTAT4
  IC50: < 0.1 µM

## C[C@@H](c1ccc(Nc2cc(Nc3ncc(Cl)cc3S(C)(=O)=O)ncn2)nc1)N1CC2(COC2)C1 [Compound 14, (S)—N^4-(5-(1-(2-oxa-6-azaspiro[3.3]heptan-6-yl)ethyl) 95yridine-2-yl)-N^6-(5-chloro-3-(methylsulfonyl)95yridine-2-yl)pyrimidine-4,6-diamine]
TYK2-JH2
  Ligand Efficiency: ††† (†††: >0.39)
IL-12/pSTAT4
  IC50: < 0.1 µM

## C[C@@H](c1ccc(Nc2cc(Nc3ncccc3S(C)(=O)=O)ncn2)nc1)N1CCCC1 [Compound 15, I-N^4-(3-(methylsulfonyl)97yridine-2-yl)-N^6-(5-(1-(97yridine9797e-1-yl)ethyl)97yridine-2-yl)pyrimidine-4,6-diamine]
TYK2-JH2
  Ligand Efficiency: ††† (†††: >0.39)
IL-12/pSTAT4
  IC50: < 0.1 µM

## CS(=O)(=O)c1cccnc1Nc1cc(Nc2ccc([C@@H](N3CC4(COC4)C3)C(F)(F)F)cn2)ncn1 [Compound 16, I-N^4-(3-(methylsulfonyl)98yridine-2-yl)-N^6-(5-(2,2,2-trifluoro-1-(2-oxa-6-azaspiro[3.3]heptan-6-yl)ethyl)98yridine-2-yl)pyrimidine-4,6-diamine]
TYK2-JH2
  Ligand Efficiency: †† (††: 0.37-0.39)
IL-12/pSTAT4
  IC50: < 0.1 µM

## C[C@H]1CN(C)CCN1c1ccc(Nc2cc(Nc3ncccc3S(C)(=O)=O)ncn2)nc1 [Compound 20, (S)—N^4-(5-(2,4-dimethylpiperazin-1-yl)101yridine-2-yl)-N^6-(3-(methylsulfonyl)101yridine-2-yl)pyrimidine-4,6-diamine]
TYK2-JH2
  Ligand Efficiency: ††† (†††: >0.39)
IL-12/pSTAT4
  IC50: < 0.1 µM

## CS(=O)(=O)c1cccnc1Nc1cc(Nc2ccc(N3CCC4(CCO4)CC3)cn2)ncn1 [Compound 24, N^4-(5-(1-oxa-7-azaspiro[3.5]nonan-7-yl)104yridine-2-yl)-N^6-(3-(methylsulfonyl)104yridine-2-yl)pyrimidine-4,6-diamine]
TYK2-JH2
  Ligand Efficiency: †† (††: 0.37-0.39)
IL-12/pSTAT4
  IC50: < 0.1 µM

## C[C@@H](c1ccc(Nc2cc(Nc3ncccc3S(C)(=O)=O)ncn2)nc1)N1C[C@H]2COC[C@H]2C1 [Compound 25, N^4-(3-(methylsulfonyl)105yridine-2-yl)-N^6-(5-(1-((3aR,6aS)-tetrahydro-1H-furo[3,4-c]pyrrol-5 (3H)-yl)ethyl)105yridine-2-yl)pyrimidine-4,6-diamine]
TYK2-JH2
  Ligand Efficiency: ††† (†††: >0.39)
IL-12/pSTAT4
  IC50: < 0.1 µM

## C[C@@H](c1ccc(Nc2cc(Nc3ncccc3S(C)(=O)=O)ncn2)nc1)N1CCCC12CCOCC2 [Compound 29, (S)—N^4-(5-(1-(8-oxa-1-azaspiro[4.5]decan-1-yl)ethyl)111yridine-2-yl)-N^6-(3-(methylsulfonyl)111yridine-2-yl)pyrimidine-4,6-diamine]
TYK2-JH2
  Ligand Efficiency: †† (††: 0.37-0.39)
IL-12/pSTAT4
  IC50: < 0.1 µM

## C[C@H](c1ccc(Nc2cc(Nc3ncccc3S(C)(=O)=O)ncn2)nc1)N1CCC2(CCOCC2)C1 [Compound 30, I-N^4-(5-(1-(8-oxa-2-azaspiro[4.5]decan-2-yl)ethyl)112yridine-2-yl)-N^6-(3-(methylsulfonyl)112yridine-2-yl)pyrimidine-4,6-diamine]
TYK2-JH2
  Ligand Efficiency: †† (††: 0.37-0.39)
IL-12/pSTAT4
  IC50: < 0.1 µM

## C[C@@H](c1ccc(Nc2cc(Nc3ncccc3S(C)(=O)=O)ncn2)nc1)N1CC2(CCOCC2)C1 [Compound 31, I-N^4-(5-(1-(7-oxa-2-azaspiro[3.5]nonan-2-yl)ethyl)pyridine-2-yl)-N^6-(3-(methylsulfonyl)114yridine-2-yl)pyrimidine-4,6-diamine]
TYK2-JH2
  Ligand Efficiency: †† (††: 0.37-0.39)
IL-12/pSTAT4
  IC50: < 0.1 µM

## C[C@@H](c1ccc(Nc2cc(Nc3ncccc3S(C)(=O)=O)ncn2)nc1)N1CC2(CCOC2)C1 [Compound 32, (S)—N^4-(5-(1-(6-oxa-2-azaspiro[3.4]octan-2-yl)ethyl)114yridine-2-yl)-N^6-(3-(methylsulfonyl)114yridine-2-yl)pyrimidine-4,6-diamine]
TYK2-JH2
  Ligand Efficiency: ††† (†††: >0.39)
IL-12/pSTAT4
  IC50: < 0.1 µM

## CC(C)(c1ccc(Nc2cc(Nc3ncccc3S(C)(=O)=O)ncn2)nc1)N1CC2(CCOCC2)C1 [Compound 33, N^4-(5-(2-(7-oxa-2-azaspiro[3.5]nonan-2-yl)propan-2-yl)118yridine-2-yl)-N^6-(3-(methylsulfonyl)118yridine-2-yl)pyrimidine-4,6-diamine]
TYK2-JH2
  Ligand Efficiency: †† (††: 0.37-0.39)
IL-12/pSTAT4
  IC50: < 0.1 µM

## CC(c1ccc(Nc2cc(Nc3ncccc3S(C)(=O)=O)ncn2)nc1)N1CC2(CC(C(F)F)C2)C1 (stereo not drawn) [Compound 34, N^4-(5-(1-(6-(difluoromethyl)-2-azaspiro[3.3]heptan-2-yl)ethyl) 120yridine-2-yl)-N^6-(3-(methylsulfonyl)120yridine-2-yl)pyrimidine-4,6-diamine]
TYK2-JH2
  Ligand Efficiency: †† (††: 0.37-0.39)
IL-12/pSTAT4
  IC50: < 0.1 µM

## CC1(CNc2ccc(Nc3cc(Nc4ncccc4S(C)(=O)=O)ncn3)nc2)COC1 [Compound 36, N^4-(5-(((3-methyloxetan-3-yl)methyl)amino)123yridine-2-yl)-N^6-(3-(methylsulfonyl)123yridine-2-yl)pyrimidine-4,6-diamine]
TYK2-JH2
  Ligand Efficiency: ††† (†††: >0.39)
IL-12/pSTAT4
  IC50: < 0.1 µM

## CS(=O)(=O)c1cccnc1Nc1cc(Nc2ccc(NC3CC(F)(F)C3)cn2)ncn1 [Compound 37, N^4-(5-(3,3-difluorocyclobutylamino)124yridine-2-yl)-N^6-(3-(methylsulfonyl)124yridine-2-yl)pyrimidine-4,6-diamine]
TYK2-JH2
  Ligand Efficiency: ††† (†††: >0.39)
IL-12/pSTAT4
  IC50: < 0.1 µM

## CS(=O)(=O)c1cccnc1Nc1cc(Nc2ccc(C(=O)NC3CC(F)(F)C3)cn2)ncn1 [Compound 38, N-(3,3-difluorocyclobutyl)-6-(6-(3-(methylsulfonyl)pyridine-2-ylamino)pyrimidin-4-ylamino)nicotinamide]
TYK2-JH2
  Ligand Efficiency: ††† (†††: >0.39)
IL-12/pSTAT4
  IC50: < 0.1 µM

## C[C@H](NC1COC1)c1ccc(Nc2cc(Nc3ccccc3S(C)(=O)=O)ncn2)nc1 [Compound 40, I-N^4-(2-(methylsulfonyl)phenyl)-N^6-(5-(1-(oxetan-3-ylamino)ethyl)128yridine-2-yl)pyrimidine-4,6-diamine]
TYK2-JH2
  Ligand Efficiency: ††† (†††: >0.39)
IL-12/pSTAT4
  IC50: 0.1 to 1 µM

## Cc1cccc(Nc2cc(Nc3ccccc3C(N)=O)nc(N)n2)n1 [Compound 55, 2-((2-amino-6-((6-methylpyridin-2-yl)amino)pyrimidin-4-yl)amino)benzamide]
TYK2-JH2
  Ligand Efficiency: †† (††: 0.37-0.39)

## Cc1cccc(Nc2cc(Nc3ccccc3S(C)(=O)=O)nc(C)n2)n1 [Compound 56, 2-methyl-N^4-(6-methylpyridin-2-yl)-N^6-(2-(methylsulfonyl)phenyl) pyrimidine-4,6-diamine]
TYK2-JH2
  Ligand Efficiency: † (†: <0.37)

## Cc1cccc(Nc2cc(Nc3ccccc3S(C)(=O)=O)nc(N)n2)n1 [Compound 57, N^4-(6-methylpyridin-2-yl)-N^6-(2-(methylsulfonyl)phenyl)pyrimidine-2,4,6-triamine]
TYK2-JH2
  Ligand Efficiency: ††† (†††: >0.39)

## CC1(Nc2ccc(Nc3cc(Nc4ncccc4S(C)(=N)=O)ncn3)nc2)COC1 (stereo not drawn) [Compound 73, N^4-(5-((3-methyloxetan-3-yl)amino)166yridine-2-yl)-N^6-(3-(S-methylsulfonimidoyl)166yridine-2-yl)pyrimidine-4,6-diamine]
TYK2-JH2
  Ligand Efficiency: ††† (†††: >0.39)

## CC(c1ccc(Nc2ncnc(Nc3ncccc3S(C)(=O)=O)c2F)nc1)N1CC2(COC2)C1 (stereo not drawn) [Compound 75, N^4-(5-(1-(2-oxa-6-azaspiro[3.3]heptan-6-yl)ethyl)168yridine-2-yl)-5-fluoro-N^6-(3-(methylsulfonyl)168yridine-2-yl)pyrimidine-4,6-diamine]
TYK2-JH2
  Ligand Efficiency: † (†: <0.37)
